Target: T1, Recombinant human liver GK1 (GST-GK) (Homo sapiens, UniProt P35557)
T1 construct: made in house; host or cells: E. coli
T1 sequence (P35557 1-466 isoform P35557-2): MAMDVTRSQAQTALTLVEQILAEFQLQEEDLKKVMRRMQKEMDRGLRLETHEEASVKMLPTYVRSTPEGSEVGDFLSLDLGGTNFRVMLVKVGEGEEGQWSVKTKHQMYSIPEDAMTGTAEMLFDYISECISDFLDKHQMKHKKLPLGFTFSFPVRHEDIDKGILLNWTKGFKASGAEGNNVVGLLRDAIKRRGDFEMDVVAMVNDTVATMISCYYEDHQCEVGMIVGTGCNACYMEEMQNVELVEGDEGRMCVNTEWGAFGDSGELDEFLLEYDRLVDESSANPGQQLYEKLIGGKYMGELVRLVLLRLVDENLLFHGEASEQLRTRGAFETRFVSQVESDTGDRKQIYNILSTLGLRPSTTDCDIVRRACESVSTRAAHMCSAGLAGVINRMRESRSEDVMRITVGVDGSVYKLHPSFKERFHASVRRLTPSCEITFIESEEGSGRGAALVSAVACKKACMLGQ
Assay: In vitro glucokinase activity (G6PDH-coupled NADH generation assay)
Type: biochemical
Parameters: unit not given here
Details: concentration of activator that produced a 50% increase in the activity of GK; 5 mM D-glucose, 30° C., pH 7.1, 10% DMSO
Experimental: Glucokinase In Vitro Assay Protocol: Glucokinase (GK) was assayed by coupling the production of glucose-6-phosphate to the generation of NADH with glucose-6-phosphate dehydrogenase (G6PDH, 0.75-1 kunits/mg; Boehringer Mannheim, Indianapolis, Ind.) from Leuconostoc mesenteroides as the coupling enzyme:
Recombinant human liver GK1 was expressed in E. coli as a glutathione S-transferase fusion protein (GST-GK) [Liang et al, 1995]and was purified by chromatography over a glutathione-Sepharose 4B affinity column using the procedure provided by the manufacturer (Amersham Pharmacia Biotech, Piscataway, N.J.).
The assay was conducted at 30° C. in a flat bottom 96-well tissue culture plate from Costar (Cambridge, Mass.) with a final incubation volume of 120 μL. The incubation reaction contained the following: 25 mM Hepes buffer (pH 7.1), 25 mM KCl, 5 mM D-glucose, 1 mM ATP, 1.8 mM NAD, 2 mM MgCl2, 1 μM sorbitol-6-phosphate, 1 mM dithiothreitol, test drug or 10% DMSO, ˜7 units/ml G6PDH, and GK (see below). All organic reagents were >98% pure and were from Boehringer Mannheim with the exceptions of D-glucose and Hepes which were from Sigma Chemical Co, St Louis, Mo. Test compounds were dissolved in DMSO and were added to the incubation reaction minus GST-GK in a volume of 12 μL to yield a final DMSO concentration of 10%. This mix was pre-incubated in the temperature controlled chamber of a SPECTRAmax 250 microplate spectrophotometer (Molecular Devices Corporation, Sunnyvale, Calif.) for 10 minutes to allow temperature equilibrium and then the reaction was started by the addition of 20 μL GST-GK.
After addition of enzyme, the increase in optical density (OD) at 340 nm was monitored spectrophotometrically to determine the rate of change (OD340 per min). The GK activity (OD340/min) in control wells (10% DMSO minus GK activators) was compared with the activity in wells containing test GK activators, and the concentration of activator that produced a 50% increase in the activity of GK, i.e., the SC1.5:0.1, was calculated. The table below provides the in vitro glucokinase activity for the compounds in the Examples: […]

COc1cccc2c1CC1=C(O2)C(=O)N([C@@H](CC(C)C)C(=O)Nc2nccs2)C1 [Example 11, (S)-2-(8-Methoxy-3-oxo-3,9-dihydro-1H-chromeno[2,3-c]pyrrol-2-yl)-4-methyl-pentanoic acid thiazol-2-ylamide]
SC 1.5:0.1: 8.123
